The source of these data is US4146536A, “Nocardicin E and F, and process for production thereof” (Fujisawa Pharmaceutical Co., Ltd., priority 1975, dated 1979).

Values after ≈ are worked out from the molar mass of the structure shown.

The nature of one data set: Solubility. Type of data set: physicochemical.
Data set [1] deals with Staphylococcus aureus 209P. The experiment in a line: Minimum Inhibitory Concentration (M.I.C.), serial agar dilution. Format: cell-based. As to conditions: Mueller Hinton agar, inoculum 10^6 cells/ml, 37° C., 20 hours. How it is done:
(§1) Minimum Inhibitory Concentration (M.I.C.)
(§2) M.I.C. test was conducted by a usual serial agar dilution method, using Mueller Hinton agar (Inoculum: 10^6 cells/ml) which was incubated at 37° C. for 20 hours. M.I.C. value is expressed as the minimum concentration of the Nocardicin E or F (mcg/ml) which inhibits growth of the microorganism.
(In general: In agar dilution, organisms are placed on agar that contains the substance at set levels.)

Data set [2] concerns Bacillus subtilis ATCC6633. The description is as above. Format: cell-based. Conditions: Mueller Hinton agar, inoculum 10^6 cells/ml, 37° C., 20 hours. How it is done:
as §1, §2

The subject of data set [3] is Escherichia coli NIHJ JC-2. The description is as above. Type of data set: cell-based. Conditions: NIHJJC2, Mueller Hinton agar, inoculum 10^6 cells/ml, 37° C., 20 hours. How it is done: as §1, §2
The test system of data set [4] is Pseudomonas aeruginosa NCTC10490. The description is as above. Format: cell-based. As to conditions: Mueller Hinton agar, inoculum 10^6 cells/ml, 37° C., 20 hours. How it is done: as §1, §2
Where [5] appears, read: aqueous alkaline solution (Nocardicin E: e.g. aqueous ammonia, aqueous sodium hydroxide solution).

`O=C(NC1CN(C(C(=O)O)c2ccc(O)cc2)C1=O)/C(=N/O)c1ccc(O)cc1` (stereo not drawn) [Nocardicin F]: the Solubility entry is given as “Sparing soluble” in the data set “Solubility” (C2 H5 OH); “Insoluble” in the data set “Solubility” (CH3 COCH3); “Insoluble” in the data set “Solubility” (CH3 COOC2 H5); “Sparing soluble” in “Solubility” (CH3 OH); “Insoluble” in the data set “Solubility” (CHCl3); “Highly soluble” in the data set “Solubility” (setting [5]). The Solubility result in the data set “Solubility” (dimethylsulfoxide) and in “Solubility” (pyridine) was “Highly soluble” throughout. For the same molecule, the MIC (as a rule, the lowest concentration that inhibits growth of the organism) in data set [1] is over 400 µg/mL; in data set [2] it was over 400 µg/mL; in data set [3], over 400 µg/mL; in data set [4], 100 µg/mL (≈ 250 µM).
`O=C(NC1CN(C(C(=O)O)c2ccc(O)cc2)C1=O)/C(=N\O)c1ccc(O)cc1` (stereo not drawn) [Nocardicin E]: the Solubility result is reported as “Sparingly soluble” in “Solubility” (C2 H5 OH); “Insoluble” in the data set “Solubility” (CH3 COCH3); “Insoluble” in “Solubility” (CH3 COOC2 H5); “Sparingly soluble” in the data set “Solubility” (CH3 OH); “Insoluble” in “Solubility” (CHCl3); “Highly soluble” in the data set “Solubility” (setting [5]). The Solubility entry in “Solubility” (dimethylsulfoxide) and in “Solubility” (pyridine) was “Highly soluble” throughout. For the same molecule, the MIC in data set [1] was over 400 µg/mL; in data set [2], over 400 µg/mL; in data set [3] it was over 400 µg/mL; in data set [4] it was 12.5 µg/mL (≈ 31.3 µM).
